Source: ChEMBL document CHEMBL1149218, “Predicting pharmacophore signals for post-coital antifertility activity of 1-trifluoromethyl-1,2,2-triphenylethylene derivatives: a statistical approximation using E-state index” (2004)

Each compound was assayed on Rattus norvegicus (assay: Effective oral dose of compound for Post-coital antifertility activity was determined in rats).
Format: functional
Set-up: unit not given here

Compound | pED50
FC(F)(F)C(=C(c1ccccc1)c1ccccc1)c1ccc(C(F)(F)F)cc1 | 1.477
FC(F)(F)C(=C(c1ccccc1)c1ccccc1)c1ccc(C(F)(C(F)(F)F)C(F)(F)F)cc1 | 1.204
Fc1ccccc1C(=C(c1ccccc1)c1ccccc1)C(F)(F)F | 1.204
FC(F)(F)C(c1ccccc1)C(c1ccccc1)c1ccccc1 (stereo not drawn) | 2.991
FC(F)(F)C(=C(c1ccccc1)c1ccccc1)c1cccs1 | 2.914
COc1ccc(/C(=C(/c2ccc(F)cc2)C(F)(F)F)c2ccccc2)cc1 | 1.301
FC(F)(F)C(=C(c1ccccc1)c1ccccc1)c1ccccc1 | 2.079
FC(F)(F)C(F)(F)C(=C(c1ccccc1)c1ccccc1)c1ccccc1 | 2.301
COc1ccc(C(=C(c2ccccc2)C(F)(F)F)c2ccc(OC)cc2)cc1 | 2.079
Fc1cccc(C(=C(c2ccccc2)c2ccccc2)C(F)(F)F)c1 | 1.204
COc1ccc(/C(=C(/c2ccccc2)C(F)(F)F)c2ccccc2)cc1 | 1.114
Fc1ccc(C(=C(c2ccccc2)c2ccccc2)C(F)(F)F)cc1 | 1.602
COc1ccc(C(=C(c2ccccc2)c2ccccc2)C(F)(F)F)cc1 | 2.079
Cc1ccc(C(=C(c2ccccc2)c2ccccc2)C(F)(F)F)cc1 | 2.681
FC(F)(F)C(=C(c1ccccc1)c1ccccc1)c1ccc(Cl)cc1 | 1.477
COc1ccc(/C(=C(\c2ccccc2)C(F)(F)F)c2ccccc2)cc1 | 1.602
FC(F)(F)C(=C(c1ccccc1)c1ccccc1)c1cccc(C(F)(F)F)c1 | 1.477
Fc1ccc(/C(=C(/c2ccccc2)C(F)(F)F)c2ccccc2)cc1 | 2.491
